Here are results for 5 molecules from paper PMC8546889 (Acta Pharmaceutica Sinica. B, 2021).

Series [1] concerns HT-29 cells. As to the kind of experiment: Anti-necroptosis activity assay. The note with it: for anti-necroptosis activity improvement compared with TAK-632: EC50 ratio versus TAK-632; for EC50: Homo sapiens, HT-29, read-out: Anti-necroptosis (EC50). The class given is cell-based, human.
The next series is described as follows: Cytotoxicity. The class given is cell-based.
Series [2] deals with T1, RIP3 (Homo sapiens, UniProt Q9Y572). Nature of the series: KINOMEscan kinase binding assay, RIP3.
T1 sequence (Q9Y572 whole entry): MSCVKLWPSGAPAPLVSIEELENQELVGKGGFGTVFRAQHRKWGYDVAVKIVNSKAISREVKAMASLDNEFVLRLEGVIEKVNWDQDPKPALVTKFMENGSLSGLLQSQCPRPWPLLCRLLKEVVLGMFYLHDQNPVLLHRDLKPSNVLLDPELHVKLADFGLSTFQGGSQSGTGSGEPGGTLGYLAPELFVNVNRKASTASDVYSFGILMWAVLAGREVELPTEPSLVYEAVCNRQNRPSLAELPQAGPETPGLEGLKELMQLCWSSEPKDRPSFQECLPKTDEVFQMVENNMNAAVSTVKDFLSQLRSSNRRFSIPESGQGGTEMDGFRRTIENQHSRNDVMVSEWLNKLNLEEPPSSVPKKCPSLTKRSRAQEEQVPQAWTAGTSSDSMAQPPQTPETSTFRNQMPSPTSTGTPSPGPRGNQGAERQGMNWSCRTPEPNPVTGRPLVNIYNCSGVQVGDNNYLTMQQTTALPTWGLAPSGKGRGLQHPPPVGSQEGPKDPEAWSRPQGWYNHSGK
Series [3] has as its system HT-29 cells. As to the kind of experiment: TCZ-induced necroptosis in HT-29 cells. The class given is cell-based, human. Particulars: TCZ 24 h.
Series [4] deals with HT-29 cells. Nature of the series: Apoptosis model induced by TC or TS in HT-29 cells. The class given is cell-based, human. Particulars: different concentrations.
Series [5] relates to phosphorylation of RIP1, RIP3, and MLKL. Nature of the series: Immunoblotting of necroptosis pathway phosphorylation in TSZ-induced HT-29 cells. The class given is cell-based, human. The note with it: 1 μmol/L.
The subject of the next series is healthy mice. As to the kind of experiment: Single-dose acute oral toxicity test. In kind it is in vivo.
The test system of series [6] is C57BL/6 J mice. Nature of the series: DSS-induced UC model. In kind it is in vivo.
A further series in a line: PK study in mice. In kind it is in vivo. The note with it: male, ICR, mouse, plasma; for AUC: mice.
In a further series the test system is L929 cells. Nature of the series: TZ-induced necroptosis in L929 cells. Particulars: mTNF-α and Z-VAD-FMK (TZ), 9 h.
For a further series, the target named is T2, RIP1-RIP3 necrosome (Homo sapiens, UniProt Q13546).
T2 sequence (Q13546 1-671): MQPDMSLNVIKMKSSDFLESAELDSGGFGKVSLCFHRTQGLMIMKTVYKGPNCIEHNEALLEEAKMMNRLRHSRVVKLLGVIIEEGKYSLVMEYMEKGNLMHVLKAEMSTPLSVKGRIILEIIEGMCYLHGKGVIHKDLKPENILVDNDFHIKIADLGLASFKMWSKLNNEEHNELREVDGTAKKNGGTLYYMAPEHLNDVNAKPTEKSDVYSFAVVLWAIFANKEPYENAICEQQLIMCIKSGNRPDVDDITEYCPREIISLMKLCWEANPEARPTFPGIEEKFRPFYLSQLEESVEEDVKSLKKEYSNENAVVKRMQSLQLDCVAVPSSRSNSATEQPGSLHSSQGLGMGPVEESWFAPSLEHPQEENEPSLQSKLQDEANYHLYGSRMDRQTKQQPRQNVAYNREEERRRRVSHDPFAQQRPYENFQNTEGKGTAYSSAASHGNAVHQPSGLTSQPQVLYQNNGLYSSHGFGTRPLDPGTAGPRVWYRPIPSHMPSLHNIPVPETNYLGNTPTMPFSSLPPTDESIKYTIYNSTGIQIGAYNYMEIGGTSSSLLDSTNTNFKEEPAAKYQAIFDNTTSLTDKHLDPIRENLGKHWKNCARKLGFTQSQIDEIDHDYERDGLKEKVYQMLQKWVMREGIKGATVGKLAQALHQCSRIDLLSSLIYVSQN
Nature of the series: Immunoprecipitation of RIP1-RIP3 necrosome. The note with it: HT-29 cells, 1 μmol/L, 6 h.

Series [7] deals with T3, RIP1 (Homo sapiens, UniProt Q13546).
T3 sequence (Q13546 1-671): T2 sequence (Q13546 1-671)
As to the kind of experiment: Drug affinity responsive target stability assay. The note with it: 50 μmol/L, HT-29 cell lysates, 0.1% Pronase 30 min.

Series [8] has as its target T1, RIP3. Nature of the series: Drug affinity responsive target stability assay. Particulars: 50 μmol/L, HT-29 cell lysates, 0.1% Pronase 30 min.
Series [9] concerns C57BL/6 J mice. Nature of the series: TNF-α-induced systemic inflammatory response syndrome. Particulars: for survival rate of SIRS mice: over 60 h.
The target of series [10] is T3, RIP1. As to the kind of experiment: KINOMEscan kinase binding assay, RIP1. The note with it: for RIP1 selectivity: RIP1 over RIP3 (Kd ratio).
The conditions of series [11]: read-out: Cytotoxicity (CC50); cited from earlier work.

Where two headings read alike, the source gives them in different places. A value given as a limit tells only on which side of the number the result lay.

With `O=C(Cc1cccc(C(F)(F)F)c1)Nc1cc(Oc2cc3sc(NC(=O)C4CC4)nc3cc2F)ccc1F` [Compound 25, N-(5-Fluoro-6-(4-fluoro-3-(2-(3-(trifluoromethyl)phenyl)acetamido)phenoxy)benzo[d]thiazol-2-yl)cyclopropanecarboxamide], the “anti-necroptosis potency improvement compared with SZM-594” value in the series on HT-29 cells [1] (EC50 ratio versus SZM-594) turned out to be 21 fold. In addition, in the series with HT-29 cells [1], the “anti-necroptosis activity improvement compared with TAK-632” value worked out at 180 fold and the concentration giving a half-maximal response (EC50) came out at 0.008 ± 0.001 µM. Besides, in the series on HT-29 cells [1] (HT-29 cells, TSZ 12 h), the “inhibition of necroptosis induced by TSZ” value was “dose-dependently inhibit necroptosis”. The 50% cytotoxic concentration (CC50) in the series “Cytotoxicity” is > 50 µM. Also, the “activity toward RIP3” value at RIP3 [2] (even at 5000 nmol/L) is listed as “no apparent activity”. For the same molecule, the “inhibition of necroptosis induced by TCZ” value in the series with HT-29 cells [3] is recorded as “dose-dependently inhibit necroptosis”. Moreover, in the series with HT-29 cells [4], the “protective effects in the apoptosis model” value is given as “did not show any protective effects”. Further, the “downstream phosphorylation of MLKL” value in series [5] is reported as “completely inhibited”. The “phosphorylation of RIP1 and RIP3” value in series [5] (within 6 h) is given as “completely inhibit”. Moreover, the “death after single oral dose” value in the series on healthy mice (5 g/kg intragastric, 2 weeks, male and female mice) was “no death occurred”. For the same molecule, in the series with healthy mice (5 g/kg, 14-day period), the acute tolerability entry is given as “well tolerated”. Besides, in the series on C57BL/6 J mice [6] (20 mg/kg, Day 13, P < 0.01 versus untreated colitis mice), the colon length result is recorded as “longer colon length”. Besides, the “alleviation of body weight in UC mice” value in the series with C57BL/6 J mice [6] (10 or 20 mg/kg intragastric, from Day 11) was “significantly dose-responsed speeded up”. The “phosphorylation of RIP1, RIP3 and MLKL in colon tissue” value with C57BL/6 J mice [6] (Western blot, TUNEL) is recorded as “reducing the phosphorylation”. In addition, the “mRNA of inflammatory cytokines (Il-6 and Il-1β) and chemokine receptors (Ccr-2 and Ccr-5)” value in the series on C57BL/6 J mice [6] (colon tissue, qPCR) is on record as “significantly reduced”. For the same molecule, the “protein expressions of IL-6 and IL-1β in colon tissue” value in the series on C57BL/6 J mice [6] (dose–response manner) is reported as “inhibited the protein expressions”. In the series with C57BL/6 J mice [6] (intestinal permeability, versus DSS-disease mice), the “level of FITC-dextran in the serum” value is “significantly lower”. Also, in the series “PK study in mice” (iv, 1 mg/kg), the mean residence time MRT inf is 1.59 ± 0.43 h, the Vd is 1670 ± 856 L/kg, the clearance is 16.8 ± 4.8 mL/min/kg and the half-life was 1.67 ± 0.46 h. Further, the AUC in “PK study in mice” (iv, 1 mg/kg, AUC0‒t, 1 mg/kg i.v.) was 1030 ± 350 ng·h/mL. In “PK study in mice” (iv, 1 mg/kg, AUC0‒∞, 1 mg/kg i.v.), this molecule came in with an area under the curve (AUC) of 1060 ± 354 ng·h/mL. Also, in the series “PK study in mice” (po, 10 mg/kg), the peak level (Cmax) was 381 ± 35 ng/mL, the MRT inf came to 2.74 ± 0.32 h, the Tmax was 0.67 ± 0.29 h and the bioavailability came to 9.69 ± 2.31%. The half-life in the series “PK study in mice” (po, 10 mg/kg) was 1.18 ± 0.62 h. In the series “PK study in mice” (po, 10 mg/kg, AUC0‒t, 10 mg/kg p.o.), this molecule showed an exposure (AUC) of 991 ± 218 ng·h/mL. The exposure (AUC) in the series “PK study in mice” (po, 10 mg/kg, AUC0‒∞, 10 mg/kg p.o.) worked out at 1030 ± 245 ng·h/mL. The “attenuation of necroptosis in L929 cells” value in the series with L929 cells is recorded as “dose-dependently attenuated necroptosis”. The TSZ-induced necrosome formation result at RIP1-RIP3 necrosome is given as “completely blocked”. The “DARTS protection of RIP1 from protease digestion” value at RIP1 [7] is listed as “protected from protease digestion”. Also, at RIP3 [8], the “DARTS detection of RIP3 after protease digestion” value was “not detected”. The “body temperature loss in SIRS mice” value in the series on C57BL/6 J mice [9] (10 or 20 mg/kg intragastric, first 2–3 h after mTNF-α/Z-VAD-FMK) is given as “protected mice from body temperature loss”. Also, the “survival rate of SIRS mice” value in the series on C57BL/6 J mice [9] (single dose 10 mg/kg) worked out at 60%. The “survival rate of SIRS mice” value in the series on C57BL/6 J mice [9] (single dose 20 mg/kg) was determined as 100%.

Turning to `N#Cc1cc(Oc2ccc(F)c(NC(=O)Cc3cccc(C(F)(F)F)c3)c2)cc2sc(NC(=O)C3CC3)nc12` [Compound 15], the EC50 in the series with HT-29 cells [1] was > 10 µM. In the series with HT-29 cells [1] (at 10 μmol/L), the anti-necroptosis activity entry was “completely eliminated the activity”.

Consider `O=C(Cc1cccc(C(F)(F)F)c1)Nc1cc(Oc2ccc3nc(NC(=O)C4CC4)sc3c2[N+](=O)[O-])ccc1F` [Compound 9], for which, in the series with HT-29 cells [1], the EC50 was determined as 0.48 ± 0.01 µM. The 50% cytotoxic concentration (CC50) in “Cytotoxicity” was > 50 µM. In addition, the results for the Kd on RIP1 [10] and at RIP3 [2] were 0.71 µM and 0.26 µM, respectively. Besides, the RIP1 selectivity at RIP1 [10] is recorded as 0.37.

For the molecule `CC(=O)c1c(Oc2ccc(F)c(NC(=O)Cc3cccc(C(F)(F)F)c3)c2)ccc2nc(NC(=O)C3CC3)sc12` [Compound 10], in the series on HT-29 cells [1], the “anti-necroptosis activity improvement compared with TAK-632” value was “more than 10 fold” and the EC50 worked out at 0.13 ± 0.06 µM. The CC50 in “Cytotoxicity” is > 50 µM. On RIP1 [10], the equilibrium dissociation constant (Kd) was 0.88 µM and the RIP1 selectivity amounted to 0.37. Moreover, binding at RIP3 [2] was put at a Kd of 0.33 µM.

On to `N#Cc1c(Oc2ccc(F)c(NC(=O)Cc3cccc(C(F)(F)F)c3)c2)ccc2nc(NC(=O)C3CC3)sc12` [Compound 5, N-(7-Cyano-6-(4-fluoro-3-(2-(3-(trifluoromethyl)phenyl)acetamido)phenoxy)benzo[d]thiazol-2-yl)cyclopropanecarboxamide], for which the CC50 in series [11] was > 50 µM.
